Data set [1] has as its system Escherichia coli. In words: Antibacterial activity against Escherichia coli TG-1 transfected with Klebsiella pneumoniae full-length NDM-1 beta-lactamase gene. Format: functional.
Data set [2] has as its system Escherichia coli. In words: Antibacterial activity against Escherichia coli TG-1 transfected with Klebsiella pneumoniae full-length NDM-1 beta lactamase gene incubated in presence of meropenem. Format: functional.
The subject of data set [3] is Escherichia coli. As to the kind of experiment: Synergistic antibacterial activity against Escherichia coli TG-1 transfected with Klebsiella pneumoniae full-length NDM-1 beta lactamase gene assessed as fractional inhibitory concentration index in presence of meropenem. Format: functional.
Data set [4] deals with Escherichia coli. In words: Antibacterial activity against Escherichia coli BJE-4 expressing NDM-1 gene. Format: functional.
Data set [5] has as its system Escherichia coli. As to the kind of experiment: Antibacterial activity against Escherichia coli BJE-4 expressing NDM-1 gene in presence of meropenem. Format: functional.
Data set [6] relates to Escherichia coli. In words: Synergistic antibacterial activity against Escherichia coli BJE-4 expressing NDM-1 gene assessed as fractional inhibitory concentration index in presence of meropenem. Format: functional.
For data set [7], the system named is Escherichia coli. In words: Antibacterial activity against Escherichia coli producing NDM-1 and CTX-M-15 beta lactamases. Format: functional.
The test system of data set [8] is Escherichia coli. As to the kind of experiment: Antibacterial activity against Escherichia coli producing NDM-1, CTX-M-15 and SHV-12 beta lactamases. Format: functional.
Data set [9] concerns Citrobacter freundii. As to the kind of experiment: Antibacterial activity against Citrobacter freundii producing NDM-1 and SHV-12 beta-lactamases. Format: functional.
Data set [10] relates to Citrobacter freundii. As to the kind of experiment: Antibacterial activity against Citrobacter freundii producing NDM-1, CTX-M-3 and KPC-2 beta-lactamases. Format: functional.
Data set [11] deals with Enterobacter cloacae. In words: Antibacterial activity against Enterobacter cloacae producing NDM-1, CTX-M-14 and TEM-1 beta-lactamases. Format: functional.
The test system of data set [12] is Enterobacter cloacae. In words: Antibacterial activity against Enterobacter cloacae producing NDM-1, IMP-4 and TEM-1 beta-lactamases. Format: functional.
Data set [13] deals with Escherichia coli. As to the kind of experiment: Antibacterial activity against Escherichia coli TG-1. Format: functional.
Data set [14] relates to Enterobacter cloacae. As to the kind of experiment: Antibacterial activity against Enterobacter cloacae producing NDM-1, TEM-1 and SHV-12 beta-lactamases. Format: functional.
The test system of data set [15] is Klebsiella pneumoniae. As to the kind of experiment: Antibacterial activity against Klebsiella pneumoniae producing NDM-1, KPC-2 and SHV-12 beta-lactamases. Format: functional.
Data set [16] relates to Caco-2. As to the kind of experiment: Antibacterial activity against Salmonella lomita SL131 infected in human Caco-2 cells assessed as reduction in bacterial survival rate at 64 ug/ml incubated for 6 hrs by agar dilution method. Format: functional, cell-based. To be noted: Salmonella enterica subsp. enterica serovar Lomita, dose 64.0 µg/ml. For orientation: Agar dilution tests growth on a series of plates holding different concentrations.

Data set [17] concerns the target Metallo-beta-lactamase type 2 (Bacteria, UniProt C7C422). As to the kind of experiment: Inhibition of NDM-1 (unknown origin) using nitrocefin as substrate incubated for 15 to 60 mins by absorption based analysis.
For data set [18], the system named is HEK-293T. As to the kind of experiment: Cytotoxicity against HEK293T cells assessed as reduction in cell viability at 8 to 64 ug/ml incubated for 48 hrs by MTT assay. Particulars: human, dose 8-64 µg/ml. Format: toxicity, cell-based.

In brackets after ≈: the same amount, converted by molar mass. Activity calls are given as the source filed them. The rule behind the calls is not given here.

Broadly, the MIC is the lowest concentration that inhibits growth of the organism. A word on the IC50: it is the midpoint of a concentration-inhibition curve. Lower therefore signals higher potency.

Metallo-beta-lactamase type 2, sequence (C7C422 whole entry): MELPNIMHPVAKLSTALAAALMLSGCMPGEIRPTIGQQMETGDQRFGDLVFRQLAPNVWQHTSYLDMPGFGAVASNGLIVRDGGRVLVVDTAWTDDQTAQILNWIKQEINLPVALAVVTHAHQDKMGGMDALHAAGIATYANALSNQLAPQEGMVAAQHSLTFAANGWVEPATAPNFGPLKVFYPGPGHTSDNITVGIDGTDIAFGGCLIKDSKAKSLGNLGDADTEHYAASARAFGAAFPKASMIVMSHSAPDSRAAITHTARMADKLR

Turning to `COc1ccc(S(=O)(=O)NCCn2[se]c3ccccc3c2=O)cc1`, the MIC in data set [1] is more than 64 µg/mL; in data set [2] it was not above 8 µg/mL; in data set [4] it was more than 16 µg/mL; in data set [5], 8 µg/mL. Also, the “fractional inhibitory concentration index (FICI)” value in data set [3] is reported as 0.25; in data set [6] it was 0.625.
As to `CC(C)(C)C(=O)NCCCn1[se]c2ccccc2c1=O`, the MIC in data set [1] is more than 64 µg/mL; in data set [2], 16 µg/mL; in [4] it was more than 16 µg/mL; in [5], 8 µg/mL. Further, the entries for the “fractional inhibitory concentration index (FICI)” value in [3] and in data set [6] were 0.5 and 0.625, respectively.
On to `O=c1c2ccccc2[se]n1CCNS(=O)(=O)c1ccc(F)cc1`, for which the minimal inhibitory concentration (MIC) in data set [1] was more than 64 µg/mL; in [2], not above 8 µg/mL; in data set [4] it was more than 16 µg/mL; in data set [5], 8 µg/mL. The “fractional inhibitory concentration index (FICI)” value in data set [3] was found to be 0.25; in data set [6], 0.625.
As for `O=c1c2ccccc2[se]n1-c1ccc(-c2ccccc2)cc1`, the MIC in data set [1] was 64 µg/mL (≈ 183 µM); in [2], 64 µg/mL; in data set [4], more than 16 µg/mL; in data set [5], 8 µg/mL. Moreover, the “fractional inhibitory concentration index (FICI)” value was 2 in data set [3] and 0.625 in data set [6].
On to `CC(C)(C)C(=O)NCCn1[se]c2ccccc2c1=O`, for which the minimal inhibitory concentration (MIC) was more than 64 µg/mL in [1], 64 µg/mL in data set [2], more than 16 µg/mL in [4] and 8 µg/mL in data set [5]. In addition, the “fractional inhibitory concentration index (FICI)” value came to 2 in [3] and 0.625 in data set [6].
With `CN(C)S(=O)(=O)NCCn1[se]c2ccccc2c1=O`, the minimum inhibitory concentration (MIC) in [1] is more than 64 µg/mL; in [2] it was not above 8 µg/mL; in data set [4], more than 16 µg/mL; in data set [5], 8 µg/mL. The entries for the “fractional inhibitory concentration index (FICI)” value in data set [3] and in data set [6] were 0.25 and 0.625, respectively.
Take `C[C@@H](O)[C@H]1C(=O)N2C(C(=O)O)=C(S[C@@H]3CN[C@H](C(=O)N(C)C)C3)[C@H](C)[C@H]12` [MEROPENEM]: the minimal inhibitory concentration (MIC) in data set [1] is more than 64 µg/mL; in data set [4], more than 16 µg/mL; in [7] it was more than 64 µg/mL; in data set [8], more than 64 µg/mL; in [9], 64 µg/mL (≈ 167 µM); in data set [10], more than 64 µg/mL. For the same compound, the minimum inhibitory concentration (MIC) in data set [11] is 64 µg/mL (≈ 167 µM); in data set [12], 64 µg/mL (≈ 167 µM); in data set [13] it was 0.5 µg/mL (≈ 1.3 µM); in data set [14], 64 µg/mL (≈ 167 µM); in [15], more than 64 µg/mL. For the same compound, the outcome in [16] was inactive.
As to `CC(C)(C)OC(=O)NCCn1[se]c2ccccc2c1=O`, the minimum inhibitory concentration (MIC) in data set [1] was more than 64 µg/mL; in [2], 16 µg/mL; in [4] it was more than 16 µg/mL; in [5], 8 µg/mL. The “fractional inhibitory concentration index (FICI)” value in data set [3] is on record as 0.5; in data set [6], 0.625. Also, 1.26 µM corresponded to half-maximal inhibition in data set [17] (IC50).
Consider `CC(C)(C)OC(=O)N1CCC(n2[se]c3ccccc3c2=O)CC1`, for which the MIC in data set [1] was more than 64 µg/mL; in data set [2], 16 µg/mL; in [4], more than 16 µg/mL; in data set [5], 8 µg/mL. Moreover, the “fractional inhibitory concentration index (FICI)” value in data set [3] came out at 0.5; in [6], 0.625.
On to `CCc1ccc(-n2[se]c3ccccc3c2=O)cc1`, for which the minimal inhibitory concentration (MIC) in data set [1] was more than 64 µg/mL; in data set [2] it was 64 µg/mL; in data set [4], more than 16 µg/mL; in data set [5] it was 8 µg/mL. In addition, the figures for the “fractional inhibitory concentration index (FICI)” value in data set [3] and in data set [6] were 2 and 0.625, respectively.
On to `CC(C)(C)OC(=O)NCCCCCn1[se]c2ccccc2c1=O`, for which the minimum inhibitory concentration (MIC) in data set [1] was more than 64 µg/mL; in data set [2], 16 µg/mL; in data set [4] it was more than 16 µg/mL; in data set [5], 8 µg/mL. Moreover, the “fractional inhibitory concentration index (FICI)” value in [3] was determined as 0.5; in data set [6] it was 0.625.
For `Cc1ccc(S(=O)(=O)NCCn2[se]c3ccccc3c2=O)cc1`, the minimal inhibitory concentration (MIC) in data set [1] is more than 64 µg/mL; in [2] it was not above 8 µg/mL; in [4], more than 16 µg/mL; in data set [5], 8 µg/mL. For the same compound, the “fractional inhibitory concentration index (FICI)” value was determined as 0.25 in [3] and 0.625 in data set [6].
With `CC(C)(C)c1ccc(S(=O)(=O)NCCn2[se]c3ccccc3c2=O)cc1`, the MIC is more than 64 µg/mL in data set [1], not above 8 µg/mL in data set [2], more than 16 µg/mL in data set [4] and 8 µg/mL in [5]. The “fractional inhibitory concentration index (FICI)” value stood at 0.25 in data set [3] and 0.625 in data set [6].
On to `CC(C)(C)OC(=O)NCCCCn1[se]c2ccccc2c1=O`, for which the MIC in data set [1] was more than 64 µg/mL; in data set [2], 32 µg/mL; in data set [4], more than 16 µg/mL; in [5] it was 8 µg/mL. Further, the “fractional inhibitory concentration index (FICI)” value in data set [3] worked out at 1; in [6] it was 0.625.
As to `CC(C)(C)OC(=O)NCCCn1[se]c2ccccc2c1=O`, the minimal inhibitory concentration (MIC) in [1] was more than 64 µg/mL; in data set [2] it was 16 µg/mL; in [4], more than 16 µg/mL; in data set [5], 8 µg/mL. Further, the “fractional inhibitory concentration index (FICI)” value amounted to 0.5 in data set [3] and 0.625 in data set [6].
`CC(C)(C)OC(=O)N1CC[C@@H](n2[se]c3ccccc3c2=O)C1`: the minimal inhibitory concentration (MIC) was more than 64 µg/mL in data set [1], not above 8 µg/mL in data set [2], more than 16 µg/mL in data set [4] and 8 µg/mL in [5]. The “fractional inhibitory concentration index (FICI)” value in data set [3] worked out at 0.25; in data set [6], 0.625.
`COC(=O)c1cccc(-n2[se]c3ccccc3c2=O)c1`: the MIC in [1] was more than 64 µg/mL; in data set [2], not above 8 µg/mL; in [4], more than 16 µg/mL; in [5] it was 8 µg/mL. Also, the figures for the “fractional inhibitory concentration index (FICI)” value in data set [3] and in data set [6] were 0.25 and 0.625, respectively. In data set [17], this compound came in with an IC50 of 3.63 µM.
For `CSc1nnc(-n2[se]c3ccccc3c2=O)s1`, the minimum inhibitory concentration (MIC) in data set [1] is more than 64 µg/mL; in data set [2], not above 8 µg/mL; in data set [4], more than 16 µg/mL; in [5], 8 µg/mL. In addition, the “fractional inhibitory concentration index (FICI)” value is recorded as 0.25 in [3] and 0.625 in data set [6]. Further, in data set [17], the IC50 amounted to 8.8 µM.
`CCS(=O)(=O)NCCn1[se]c2ccccc2c1=O`: the MIC was more than 64 µg/mL in data set [1], 16 µg/mL in data set [2], more than 16 µg/mL in data set [4] and 8 µg/mL in [5]. Besides, the “fractional inhibitory concentration index (FICI)” value is 0.5 in data set [3] and 0.625 in data set [6].
`COC(=O)c1ccc(-n2[se]c3ccccc3c2=O)cc1C`: the MIC is more than 64 µg/mL in data set [1], 16 µg/mL in [2], more than 16 µg/mL in data set [4] and 8 µg/mL in [5]. Also, the “fractional inhibitory concentration index (FICI)” value was determined as 0.5 in data set [3] and 0.625 in data set [6].
As for `CS(=O)(=O)c1ccc(-n2[se]c3ccccc3c2=O)cc1`, the minimum inhibitory concentration (MIC) in data set [1] is more than 64 µg/mL; in data set [2], not above 8 µg/mL; in data set [4], more than 16 µg/mL; in data set [5] it was 8 µg/mL. For the same compound, the “fractional inhibitory concentration index (FICI)” value in data set [3] is 0.25; in data set [6] it was 0.625. The half-maximal inhibitory concentration (IC50) in [17] was 7.29 µM.
As to `COC(=O)c1ccc(-n2[se]c3ccccc3c2=O)cc1OC`, the minimum inhibitory concentration (MIC) was more than 64 µg/mL in data set [1], not above 8 µg/mL in [2], more than 16 µg/mL in [4] and 4 µg/mL in data set [5]. In addition, the “fractional inhibitory concentration index (FICI)” value in [3] is 0.25; in data set [6], 0.313. This compound showed an IC50 in data set [17] of 7.81 µM. For the same compound, the Activity result in data set [18] was “Non-Toxic”.
Turning to `O=c1c2ccccc2[se]n1CCNS(=O)(=O)c1ccc(Cl)c([N+](=O)[O-])c1`, the MIC in [1] was more than 64 µg/mL; in [2] it was 16 µg/mL; in data set [4], more than 16 µg/mL; in data set [5] it was 8 µg/mL. Besides, the “fractional inhibitory concentration index (FICI)” value is 0.5 in [3] and 0.625 in data set [6].

The values are drawn from ChEMBL document CHEMBL5532748, “Design, synthesis and antibacterial activity evaluation of ebselen derivatives in NDM-1 producing bacteria” (RSC Med Chem, 2024).
